# Data from ChEMBL document CHEMBL6182859, “Synthesis of Thioloformate-Containing Lathyrane Diterpene Derivates via a [3,3] Sigmatropic Rearrangement and Their Anti-HIV Activity” (J Nat Prod, 2025).
# Experiments:
# [1] = tested on: Human immunodeficiency virus 1; test: Anti-HIV activity against HIV-1 NL 4.3 infected in human MT4 cells assessed as inhibition of virus-induced cytopathicity measured after 4 days by CellTiter 96 Aqueous One Solution Cell Proliferation Assay; assay type: functional, organism-based; conditions: Human immunodeficiency virus 1, NL 4.3, MT4, 96 h
# [2] = tested on: Human immunodeficiency virus 2; test: Anti-HIV activity against HIV-2 ROD infected in human MT4 cells assessed as inhibition of virus-induced cytopathicity measured after 4 days by CellTiter 96 Aqueous One Solution Cell Proliferation Assay; assay type: functional, organism-based; conditions: Human immunodeficiency virus 2, ROD, MT4, 96 h
# [3] = Cytotoxicity against human MT4 cells assessed as reduction in cell viability measured after 4 days by CellTiter 96 Aqueous One Solution Cell Proliferation Assay; assay type: toxicity, cell-based; conditions: time 4 day
# [4] = Selectivity index, ratio of CC50 for cytotoxicity against human MT4 cells to EC50 for antiviral activity against HIV-1 NL 4.3 infected in human MT4 cells; assay type: toxicity, cell-based; conditions: read-out: Ratio CC50/EC50
# [5] = Selectivity index, ratio of CC50 for cytotoxicity against human MT4 cells to EC50 for antiviral activity against HIV-2 ROD infected in human MT4 cells; assay type: toxicity, cell-based; conditions: read-out: Ratio CC50/EC50
Structure (SMILES),EC50 [1] [µM],EC50 [2] [µM],CC50 at 96 h [3] [µM],selectivity ratio [4],selectivity ratio [5]
C/C1=C\[C@@H]2[C@H](CC/C(CSC(=O)Oc3ccc(F)cc3)=C\C3[C@@H](O)[C@@H](C)C[C@]3(O)C1=O)C2(C)C (some centres undefined),> 45.2,> 45.2,45.2,–,–
C/C1=C\[C@@H]2[C@H](CC/C(CSC(=O)Oc3ccccc3Br)=C\C3[C@@H](O)[C@@H](C)C[C@]3(O)C1=O)C2(C)C (some centres undefined),> 45.2,> 45.2,45.2,–,–
COc1ccc(OC(=O)SC/C2=C/C3[C@@H](O)[C@@H](C)C[C@]3(O)C(=O)/C(C)=C/[C@@H]3[C@H](CC2)C3(C)C)cc1 (some centres undefined),> 47.4,> 47.4,47.4,–,–
C/C1=C\[C@@H]2[C@H](CC/C(CSC(=O)Oc3cc(F)cc(F)c3)=C\C3[C@@H](O)[C@@H](C)C[C@]3(O)C1=O)C2(C)C (some centres undefined),> 45,> 45,45,–,–
C/C1=C\[C@@H]2[C@H](CC/C(CSC(=O)Oc3ccc(Cl)cc3)=C\C3[C@@H](O)[C@@H](C)C[C@]3(O)C1=O)C2(C)C (some centres undefined),> 45.4,> 45.4,45.4,–,–
C/C1=C\[C@@H]2[C@H](CC/C(CSC(=O)Oc3ccccc3)=C\C3[C@@H](O)[C@@H](C)C[C@]3(O)C1=O)C2(C)C (some centres undefined),> 13.1,13.1,13.1,–,–
C/C1=C\[C@@H]2[C@H](CC/C(CSC(=O)Oc3ccc(C)cc3)=C\C3[C@@H](O)[C@@H](C)C[C@]3(O)C1=O)C2(C)C (some centres undefined),11.3,6.6,45.1,> 4,> 6.8
C=C1CC[C@H]2[C@@H](/C=C(\C)C(=O)[C@@]3(OC(C)=O)C[C@H](C)[C@H](OC(=O)c4ccccc4)C3[C@H]1OC(C)=O)C2(C)C (some centres undefined),> 100,> 100,> 100,–,–
C/C1=C\[C@@H]2[C@H](CC/C(CSC(=O)Oc3c(C)cccc3C)=C\C3[C@@H](O)[C@@H](C)C[C@]3(O)C1=O)C2(C)C (some centres undefined),> 100,> 100,> 100,–,–
